Values of other authors as cited in US20020110580A1, “Nutritional composition for improving the efficacy of a lipase inhibitor” (priority 2000, published 2002).

Assays:
[1] = individuals receiving CCK

Molecule	gastric emptying of both the solid and fat phases of a mixed meal	CCK release (mixed meal)	reduction in caloric intake [1]
CCCCCCCCCCC[C@@H](C[C@@H]1OC(=O)[C@H]1CCCCCC)OC(=O)[C@H](CC(C)C)NC=O [Orlistat, tetrahydrolipstatin]	accelerated	decreased	–
Cholecystokinin (peptide, UniProt P06307 21-115, looked up, Cholecystokinin) Cholecystokinin: QPVPPADPAGSGLQRAEEAPRRQLRVSQRTDGESRAHLGALLARYIQQARKAPSGRMSIVKNLQNLDPSHRISDRDYMGWMDFGRRSAEEYEYPS	–	–	16-22%
